Laboratory results: ChEMBL document CHEMBL3507680, “University of Dundee, Gates Library screen for HepG2 cell viability”

Experiment: Human HepG2 cell viability assay in 384 well format
Format: toxicity, cell-based
Set-up: dose 125 nL, time 70.5 hour; cytotoxicity at 70.5 h: concentration not given beside the values
Settings: HepG2 cells, read-out: Inhibition

| Structure (SMILES) | cytotoxicity at 70.5 h |
| --- | --- |
| CN(C)c1cccc(C(=O)Nc2ccn(CCc3ccncc3)n2)c1 | -12.6% |
| O=C(O)CCc1nc2nccc(-c3ccc(F)cc3)n2n1 | 20.1% |
| CC(=O)N1CCCC2(CN(Cc3ccc(C)s3)CCO2)C1 (stereo not given) | 0.871% |
| COCCc1noc(CN2CC(Cc3ccccc3)CC2=O)n1 (stereo not given) | -20.5% |
| COC1COC2(CCN(S(=O)(=O)c3ccc(F)cc3)CC2)C1 (stereo not given) | 17.1% |
| CC(C)c1nnc(NCCS(C)(=O)=O)s1 | -0.429% |
| CCn1c(C2CCN(C(=O)CCc3cc(Cl)no3)CC2)nn(C)c1=O | -6.98% |
| CN(Cc1ccncn1)C(=O)c1cccc(CCC(C)(C)O)c1 | -2.23% |
| CNC(=O)CCc1cc(C2CCCN2C(=O)CO)nc(C)n1 (stereo not given) | -5.79% |
| COc1ccc(C(NC(=O)c2cccc[n+]2[O-])C2CC2)cc1 (stereo not given) | -3.04% |
| COc1ccc(Oc2ncccc2NC(=O)N2CCOCC2C)cc1 (stereo not given) | -1.92% |
| COC1(CNC(=O)c2ccc(F)c(F)c2)CCSC1 (stereo not given) | -11.7% |
| CCn1ncc(S(=O)(=O)NC2(CN3CCOCC3)CCCCC2)c1C | -4.76% |
| Cc1ccc(S(=O)(=O)Nc2cccnc2O)cc1C | -0.331% |
| O=C(NCCN1CCCCC1)C(c1ccccc1)N1CCCC1 (stereo not given) | 2.81% |
| COC(=O)C(CNC(=O)Nc1cn[nH]c1)Cc1cccc(C)c1 (stereo not given) | -0.383% |
| C[C@@H](CO)NC(=O)c1ccc2nc(NS(C)(=O)=O)sc2c1 | -2.43% |
| COCC1CC2(CCN(c3ccc(C)nn3)CC2)CN1C(C)C (stereo not given) | -10.4% |
| COc1ncccc1CN1C[C@H]2CCN(c3ncccn3)C[C@H]2C1 | 1.43% |
| Cc1nn(C)c(C)c1CCC(=O)N1CCCC(n2cccn2)C1 (stereo not given) | 21.7% |
| CCc1ccc(NC(=O)c2n[nH]c(-n3cnnc3)n2)cc1 | -6.66% |
| O=C(NCCO)c1coc(CN2CCN(c3ccccc3F)CC2)n1 | -5.22% |
| O=C1CCOCCN1Cc1ccc(Cl)c(Cl)c1 | 33.5% |

| Structure (SMILES) | cytotoxicity at 70.5 h |
| --- | --- |
| CC(C)(O)CCc1cccc(C(=O)N[C@@H](CO)C(N)=O)c1 | 3.89% |
| CCCS(=O)(=O)N1C[C@@H]2CN(Cc3ccco3)CCO[C@@H]2C1 | -2.23% |
| O=C(Cc1ccc2c(c1)OCO2)N1CCN(c2cnccn2)CC1 | -8.46% |
| COCCC(=O)N1CCC2(COCc3cnc(NCC4CC4)nc32)C1 (stereo not given) | 1.86% |
| O=C(c1ccccn1)N1CCCC(c2nccn2Cc2ccncc2)C1 (stereo not given) | -4.69% |
| CCn1ccnc1CN1CCN(CC(O)c2cccc(F)c2)CC1 (stereo not given) | -5.97% |
| COc1cccc(CNC(C)c2ccc(-n3ccnc3)cc2)c1OC (stereo not given) | -8.35% |
| CCc1ccccc1C(=O)NS(=O)(=O)CCCC#N | 10.5% |
| Cc1ccc(N2CCC3(CC2)CCN(C2CCOCC2)CC3)nn1 | -2.19% |
| CN1CCc2nc3c(c(N)c2C1)CCCN3C | -16.1% |
| Cc1cc(C)nc(N2CCC(c3noc(C)n3)CC2)n1 | -7.52% |
| Cc1ccc(N(C)Cc2nnnn2C2CC2)c(C)c1 | -5.96% |
| COc1ccc(C)cc1CN1CCOC(Cn2nc(C)nc2C)C1 (stereo not given) | -19.6% |
| CCC(CN1CCN(C)CC1)NC(=O)C1(c2cccc(F)c2)CC1 (stereo not given) | -4.87% |
| CCc1nc(C2CCCN2C(=O)CCc2cccs2)no1 (stereo not given) | -5.42% |
| COc1ccc(CN(C)CC2(O)CCNC2)cc1 (stereo not given) | 0.252% |
| CCC(C)(C)NC(=O)Nc1nnc(-c2ccccn2)s1 | -10.1% |
| O=C(Cc1n[nH]c(-c2cncc(Br)c2)n1)NCc1ccccn1 | -8.81% |
| O=C(CNc1cc(-n2cnnn2)ccc1F)NCc1ccccc1 | -118% |
| CCN(Cc1nc2c(cnn2C)c(=O)[nH]1)c1ccccc1C | -11.2% |
| CC(=O)N1CCN(c2cc(CCN)nc(C3CC3)n2)CC1 | -1.97% |
| CC(=O)c1c(C)nn(CC(=O)N2Cc3cnc(C(C)(C)C)nc3C2)c1C | -5.26% |
| OCCN1CCOC2(CCCN(c3ncccn3)C2)C1 (stereo not given) | -2.47% |

| Structure (SMILES) | cytotoxicity at 70.5 h |
| --- | --- |
| CN1CCN(c2ncnc3c2CCN(C(=O)c2cccn2C)CC3)CC1 | 6.05% |
| CCN1Cc2nccn2CC(COCc2csc(C)n2)C1 (stereo not given) | -3.32% |
| CCS(=O)(=O)N1CCOC2(COCCN(c3nccs3)C2)C1 (stereo not given) | -8.91% |
| O=C(c1ccc(-n2ccnc2)cc1)N1CCCC1 | 34.6% |
| CCC1CNCc2cc3c(C)ccc(C)c3nc2O1 (stereo not given) | -1.78% |
| Cc1nc(C)n(CC2CCCN(CC(=O)Nc3cc(C)on3)C2)n1 (stereo not given) | -2.38% |
| Cc1noc(C)c1CN1CCn2c(CN3CCN(C)CC3)cnc2C1 | -14.6% |
| CNc1nc2c(s1)C(c1ccccc1Cl)CC(=O)N2 (stereo not given) | -21.9% |
| CN(C)S(=O)(=O)N1CC[C@]2(O)CCN(c3ncccn3)C[C@@H]2C1 | -9.31% |
| CN1C(=O)CC(c2ccccc2)C12CCN(c1ncc(F)cn1)CC2 (stereo not given) | -1.24% |
| Cc1ccc(C2(O)CCN(C(=O)c3sccc3S(N)(=O)=O)CC2)nc1 | -4.05% |
| Cc1nc(-c2nc(C(=O)N(C)C)c3ccccn23)cn1C(C)C | -8.88% |
| CCCS(=O)(=O)NCCc1ncc(CC)s1 | -0.431% |
| CCCS(=O)(=O)N1CCc2onc(CNc3ncccn3)c2C1 | 6.05% |
| NC(=O)c1cc2c(nc1Oc1ccc(CN3CCCC3)cc1F)CCC2 | -10.9% |
| CCC(C)NC(=O)CS(=O)(=O)Cc1nc(-c2cccs2)no1 (stereo not given) | -8.46% |
| CC(C)(C)NC(=O)CCOc1cccc(F)c1 | -5.57% |
| CS(=O)(=O)N1CCO[C@@H]2CN(C(=O)c3ccnnc3)C[C@@H]2C1 | -2.42% |
| CC(C)(C)C(=O)NCCCc1nc2ccccc2[nH]1 | -11.6% |
| CNS(=O)(=O)c1ccc(C(=O)N2CCCCC2c2ccc(C)cc2)o1 (stereo not given) | -2.53% |
| CCOC1COC2(CCN(c3ncc(C)cn3)CC2)C1 (stereo not given) | -2.14% |
| CN(C)S(=O)(=O)N1CCC2(CCCN(Cc3ccc(F)cc3)C2=O)C1 (stereo not given) | -2.15% |
| CC(C)(C)n1ncc2c1CCCC2NCc1ccc2c(c1)CCO2 (stereo not given) | 9.44% |

| Structure (SMILES) | cytotoxicity at 70.5 h |
| --- | --- |
| Cc1cc2nc(-c3ccccc3)cc(NCC3CCS(=O)(=O)C3)n2n1 (stereo not given) | 8.05% |
| CN1CCCN(C(=O)c2csc3nc(-c4ccc(Cl)cc4)cn23)CC1 | -23% |
| CCOC(=O)CSc1nnc([C@@H](N)C(C)C)o1 | -7.09% |
| Cc1noc(CN2CCN(CC(C)O)CC2)n1 (stereo not given) | 2.13% |
| Cc1ccccc1CC1(C(=O)O)CCCN(c2ncccn2)C1 (stereo not given) | -7.63% |
| COCCN1CCC2(CC1)CC(NC(=O)C(C)C)c1ccccc1O2 (stereo not given) | -4.05% |
| CCOCCC(=O)N1CCCC(CO)(CC2CC2)C1 (stereo not given) | -11% |
| O=C(CCn1cccc1)N1CCc2[nH]nc(COc3ccccc3)c2C1 | -7.09% |
| COc1ccc(F)c(CN2CCCC3(CCN(S(C)(=O)=O)C3)C2)c1 (stereo not given) | -10.2% |
| O=C(c1coc(COc2ccccc2F)n1)N1CCC[C@H]1CO | -2.42% |
| CC1(NC(=O)Cc2csc(C(C)(C)C)n2)CCS(=O)(=O)C1 (stereo not given) | 18.9% |
| COc1ccc(C(C)Nc2cnn(C)c(=O)c2Cl)cc1OC (stereo not given) | -3.5% |
| CCc1cc(NCc2cc3n(n2)CCCN(S(C)(=O)=O)C3)nc(C)n1 | -6.87% |
| Cc1cc(CN2CC[C@H]3[C@H]2CCN3CC(=O)N(C)C)oc1C | -5% |
| O=C(O)[C@@H]1CN(C(=O)CCN2CCCCC2)C[C@H]1c1ccccc1 | -5.31% |
| CCOc1ccnc(N2CCN(C(=O)c3ccoc3)CC2)n1 | 18.6% |
| CN(C)CCNC(=O)CNC(=O)N1CCc2c([nH]c3ccc(Cl)cc23)C1 | 45.2% |
| COCCn1ccc(NC(=O)Nc2cccc(C#N)c2)n1 | -9.39% |
| CN1CC(=O)N(c2cccc(F)c2)CC12CCN(Cc1cncn1C)C2 (stereo not given) | -4.15% |
| O=C(Cn1ccc2ccc(F)cc21)NC[C@@H]1CCCN2CCCC[C@H]12 | 8.28% |
| OC(c1ccccn1)C1CCN(Cc2cc3n(n2)CCNC3)CC1 (stereo not given) | 17.1% |
| Cc1nc(CNc2cccc(Cl)c2Cl)cs1 | 16.5% |
| CCCn1ncc(C(=O)NC2CCN(C3CCOCC3)CC2)c1C | -2.11% |

| Structure (SMILES) | cytotoxicity at 70.5 h |
| --- | --- |
| COCCCN1CCCC12CCN(c1ncccn1)CC2 | -5.24% |
| CN(Cc1nc(C2CC2)no1)C(=O)CN1CC(c2ccccc2)CC1=O (stereo not given) | -2.96% |
| O=C(CCc1nc2cc(Br)cnc2[nH]1)NCc1cccnc1 | -17.1% |
| CCc1ccccc1-c1cc(OC)nc(N)n1 | -8.45% |
| Cn1nccc1CNC(=O)Nc1cc(C(F)(F)F)c[nH]c1=O | -7.39% |
| O=C(Nc1cnn(Cc2ccc(Cl)cc2)c1)N1CCCC1CO (stereo not given) | -7.38% |
| COc1ccc(S(=O)(=O)NCCCc2ccc(N(C)C)cc2)cc1Cl | -3.09% |
| CS(=O)(=O)N1CC[C@H]2[C@H](C[C@@H](Cn3cncn3)N2CC2CC2)C1 | -1.14% |
| Cc1ccc(CN(Cc2ccccn2)C(=O)C2CCCCCN2C)s1 (stereo not given) | 27.3% |
| COc1ccc(-c2ccc(C(=O)NS(C)(=O)=O)c(F)c2)c(F)c1 | -6.13% |
| Cc1nnc(CN2CCCCC2c2nc(-c3ccccc3)no2)s1 (stereo not given) | -8.42% |
| O=C(c1ccco1)N1CCO[C@@H]2CN(Cc3nccs3)CC[C@@H]2C1 | -6.2% |
| Cc1nc(CN2CCN(C(C)c3nc(C(C)C)no3)CC2)oc1C (stereo not given) | -0.487% |
| CC(SCCS(C)(=O)=O)c1nc(Cc2ccccc2)no1 (stereo not given) | -7.83% |
| CCCNC(=O)C[S+]([O-])Cc1csc(C2CCCCC2)n1 (stereo not given) | -10.9% |
| CC(O)CN(C(=O)NC1CCN(CC2CCCCC2)CC1)C(C)C (stereo not given) | 1.48% |
| Cc1ccccc1N1CCCN(CC2(O)CCCNC2)CC1 (stereo not given) | 20.3% |
| O=C(CN1CCc2cncnc2C1)NCCOc1ccccc1 | -5.53% |
| CCSCc1nc(O)c2nnn(C3CCN(Cc4ccoc4)CC3)c2n1 | -14.9% |
| Cc1cc(N2CCc3cncnc3C2)n2nc(C(F)(F)F)nc2n1 | -104% |
| CCCc1nc(N[C@H]2COC[C@@H]2N2CCCCC2)c2cnn(C)c2n1 | -13.5% |
| CC1CCN(Cc2ccc(CNC(=O)c3ccn(C)c(=O)c3)cc2)CC1 | -9.84% |
| O=C(c1ccco1)N1CCC2(CCOC2)C1 (stereo not given) | -13.3% |
